Laboratory results reported in PubChem BioAssay (NCI).
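Tested at 5 concentrations; 48 h exposure; 96-well plates; endpoints linearly interpolated, else capped at highest concentration. GI50 is the concentration that inhibits growth by half. TGI is the concentration that stops growth completely.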

Assays:
Assay in all cases: inhibition of tumour cell growth, NCI panel, 48 h
786-0 renal = tested on: 786-0 renal
A498 renal = tested on: A498 renal
A549 NSCLC = tested on: A549 NSCLC
ACHN renal = tested on: ACHN renal
BT-549 breast = tested on: BT-549 breast
CAKI-1 renal = tested on: CAKI-1 renal
CCRF-CEM leukemia = tested on: CCRF-CEM leukemia
COLO 205 colon = tested on: COLO 205 colon
DU-145 prostate = tested on: DU-145 prostate
EKVX NSCLC = tested on: EKVX NSCLC
HCC-2998 colon = tested on: HCC-2998 colon
HCT-116 colon = tested on: HCT-116 colon
HCT-15 colon = tested on: HCT-15 colon
HL-60(TB) leukemia = tested on: HL-60(TB) leukemia
HOP-62 NSCLC = tested on: HOP-62 NSCLC
HOP-92 NSCLC = tested on: HOP-92 NSCLC
HS 578T breast = tested on: HS 578T breast
HT29 colon = tested on: HT29 colon
IGROV1 ovarian = tested on: IGROV1 ovarian
KM12 colon = tested on: KM12 colon
LOX IMVI melanoma = tested on: LOX IMVI melanoma
M14 melanoma = tested on: M14 melanoma
MALME-3M melanoma = tested on: MALME-3M melanoma
MCF7 breast = tested on: MCF7 breast
MDA-MB-231 breast = tested on: MDA-MB-231 breast
MDA-MB-435 = tested on: MDA-MB-435
MOLT-4 leukemia = tested on: MOLT-4 leukemia
NCI-H226 lung = tested on: NCI-H226 lung
NCI-H23 lung = tested on: NCI-H23 lung
NCI-H460 lung = tested on: NCI-H460 lung
NCI-H522 lung = tested on: NCI-H522 lung
NCI/ADR-RES ovarian = tested on: NCI/ADR-RES ovarian
OVCAR-3 ovarian = tested on: OVCAR-3 ovarian
OVCAR-4 ovarian = tested on: OVCAR-4 ovarian
OVCAR-5 ovarian = tested on: OVCAR-5 ovarian
OVCAR-8 ovarian = tested on: OVCAR-8 ovarian
PC-3 prostate = tested on: PC-3 prostate
RPMI-8226 leukemia = tested on: RPMI-8226 leukemia
SF-268 CNS = tested on: SF-268 CNS
SF-295 CNS = tested on: SF-295 CNS
SF-539 CNS = tested on: SF-539 CNS
SK-MEL-2 melanoma = tested on: SK-MEL-2 melanoma
SK-MEL-28 melanoma = tested on: SK-MEL-28 melanoma
SK-MEL-5 melanoma = tested on: SK-MEL-5 melanoma
SK-OV-3 ovarian = tested on: SK-OV-3 ovarian
SN12C renal = tested on: SN12C renal
SNB-19 CNS = tested on: SNB-19 CNS
SNB-75 CNS = tested on: SNB-75 CNS
SR leukemia = tested on: SR leukemia
SW-620 colon = tested on: SW-620 colon
T-47D breast = tested on: T-47D breast
TK-10 renal = tested on: TK-10 renal
U251 CNS = tested on: U251 CNS
UACC-257 melanoma = tested on: UACC-257 melanoma
UACC-62 melanoma = tested on: UACC-62 melanoma
UO-31 renal = tested on: UO-31 renal

In the case of `N#Cc1nn(-c2cc(=O)[nH]c3ccc(Cl)cc23)c(N)c1C#N`, the GI50 (786-0 renal) is reported as > 100 µM, the TGI (786-0 renal) is reported as > 100 µM and the GI50 (A498 renal) is reported as > 100 µM. For the same molecule, the TGI (A498 renal) was > 100 µM, the GI50 (A549 NSCLC) was > 100 µM and the TGI (A549 NSCLC) was > 100 µM. For the same molecule, the GI50 (ACHN renal) was > 100 µM, the TGI (ACHN renal) was > 100 µM and the GI50 (BT-549 breast) was > 100 µM. The TGI (BT-549 breast) was > 100 µM, the GI50 (CAKI-1 renal) was > 100 µM and the TGI (CAKI-1 renal) was > 100 µM. The GI50 (CCRF-CEM leukemia) was > 100 µM, the TGI (CCRF-CEM leukemia) was > 100 µM and the GI50 (COLO 205 colon) was 59.3 µM. The TGI (COLO 205 colon) was > 100 µM, the GI50 (DU-145 prostate) was > 100 µM and the TGI (DU-145 prostate) was > 100 µM. The GI50 (EKVX NSCLC) was 11.5 µM, the TGI (EKVX NSCLC) was > 100 µM and the GI50 (HCC-2998 colon) was > 100 µM. The TGI (HCC-2998 colon) was > 100 µM, the GI50 (HCT-116 colon) was > 100 µM and the TGI (HCT-116 colon) was > 100 µM. For the same molecule, the GI50 (HCT-15 colon) was > 100 µM, the TGI (HCT-15 colon) was > 100 µM and the GI50 (HL-60(TB) leukemia) was > 100 µM. For the same molecule, the TGI (HL-60(TB) leukemia) was > 100 µM, the GI50 (HOP-62 NSCLC) was > 100 µM and the TGI (HOP-62 NSCLC) was > 100 µM. For the same molecule, the GI50 (HOP-92 NSCLC) was 10.2 µM, the TGI (HOP-92 NSCLC) was > 100 µM and the GI50 (HS 578T breast) was > 100 µM. For the same molecule, the TGI (HS 578T breast) was > 100 µM, the GI50 (HT29 colon) was > 100 µM and the TGI (HT29 colon) was > 100 µM. The GI50 (IGROV1 ovarian) was > 100 µM, the TGI (IGROV1 ovarian) was > 100 µM and the GI50 (KM12 colon) was > 100 µM. The TGI (KM12 colon) was > 100 µM, the GI50 (LOX IMVI melanoma) was > 100 µM and the TGI (LOX IMVI melanoma) was > 100 µM. For the same molecule, the GI50 (M14 melanoma) was > 100 µM, the TGI (M14 melanoma) was > 100 µM and the GI50 (MALME-3M melanoma) was > 100 µM. The TGI (MALME-3M melanoma) was > 100 µM, the GI50 (MCF7 breast) was 82.3 µM and the TGI (MCF7 breast) was > 100 µM. For the same molecule, the GI50 (MDA-MB-231 breast) was 89.8 µM, the TGI (MDA-MB-231 breast) was > 100 µM and the GI50 (MDA-MB-435) was > 100 µM. For the same molecule, the TGI (MDA-MB-435) was > 100 µM, the GI50 (MOLT-4 leukemia) was > 100 µM and the TGI (MOLT-4 leukemia) was > 100 µM. For the same molecule, the GI50 (NCI-H226 lung) was > 100 µM, the TGI (NCI-H226 lung) was > 100 µM and the GI50 (NCI-H23 lung) was > 100 µM. The TGI (NCI-H23 lung) was > 100 µM, the GI50 (NCI-H460 lung) was > 100 µM and the TGI (NCI-H460 lung) was > 100 µM. For the same molecule, the GI50 (NCI-H522 lung) was > 100 µM, the TGI (NCI-H522 lung) was > 100 µM and the GI50 (NCI/ADR-RES ovarian) was > 100 µM. For the same molecule, the TGI (NCI/ADR-RES ovarian) was > 100 µM, the GI50 (OVCAR-3 ovarian) was > 100 µM and the TGI (OVCAR-3 ovarian) was > 100 µM. For the same molecule, the GI50 (OVCAR-4 ovarian) was 8.63 µM, the TGI (OVCAR-4 ovarian) was > 100 µM and the GI50 (OVCAR-5 ovarian) was > 100 µM. The TGI (OVCAR-5 ovarian) was > 100 µM, the GI50 (OVCAR-8 ovarian) was > 100 µM and the TGI (OVCAR-8 ovarian) was > 100 µM. For the same molecule, the GI50 (PC-3 prostate) was > 100 µM, the TGI (PC-3 prostate) was > 100 µM and the GI50 (RPMI-8226 leukemia) was > 100 µM. The TGI (RPMI-8226 leukemia) was > 100 µM, the GI50 (SF-268 CNS) was > 100 µM and the TGI (SF-268 CNS) was > 100 µM. For the same molecule, the GI50 (SF-295 CNS) was > 100 µM, the TGI (SF-295 CNS) was > 100 µM and the GI50 (SF-539 CNS) was > 100 µM. For the same molecule, the TGI (SF-539 CNS) was > 100 µM, the GI50 (SK-MEL-2 melanoma) was > 100 µM and the TGI (SK-MEL-2 melanoma) was > 100 µM. The GI50 (SK-MEL-28 melanoma) was > 100 µM, the TGI (SK-MEL-28 melanoma) was > 100 µM and the GI50 (SK-MEL-5 melanoma) was > 100 µM. For the same molecule, the TGI (SK-MEL-5 melanoma) was > 100 µM, the GI50 (SK-OV-3 ovarian) was > 100 µM and the TGI (SK-OV-3 ovarian) was > 100 µM. For the same molecule, the GI50 (SN12C renal) was > 100 µM, the TGI (SN12C renal) was > 100 µM and the GI50 (SNB-19 CNS) was > 100 µM. The TGI (SNB-19 CNS) was > 100 µM, the GI50 (SNB-75 CNS) was > 100 µM and the TGI (SNB-75 CNS) was > 100 µM. The GI50 (SR leukemia) was > 100 µM, the TGI (SR leukemia) was > 100 µM and the GI50 (SW-620 colon) was > 100 µM. For the same molecule, the TGI (SW-620 colon) was > 100 µM, the GI50 (T-47D breast) was 38.9 µM and the TGI (T-47D breast) was > 100 µM. For the same molecule, the GI50 (TK-10 renal) was > 100 µM, the TGI (TK-10 renal) was > 100 µM and the GI50 (U251 CNS) was > 100 µM. The TGI (U251 CNS) was > 100 µM, the GI50 (UACC-257 melanoma) was > 100 µM and the TGI (UACC-257 melanoma) was > 100 µM. For the same molecule, the GI50 (UACC-62 melanoma) was > 100 µM, the TGI (UACC-62 melanoma) was > 100 µM and the GI50 (UO-31 renal) was > 100 µM. For the same molecule, the TGI (UO-31 renal) was > 100 µM.
